Results published in patent publication US11154529B2, “Phosphaplatin liquid formulations” (Phosplatin Therapeutics Inc., priority 2016, dated 2021).

Assay: Design of Experiment study on pyrophosphate ion stabilization, stability at 60° C.
Format: physicochemical
Settings: added pyrophosphate ion as little as ~0.25 molar equivalent
Source text: Specifically the presence of pyrophosphate results in the rapid disappearance of the (R,R)-pyrodach-2 dimer impurity and the RRT-3.1-3.2 impurity.

With `O=P1(O)OP(=O)(O)[O][Pt]2([NH][C@@H]3CCCC[C@H]3[NH]2)[O]1` (stereo partly drawn) [(R,R)-pyrodach-2, (R,R)-trans-1,2-cyclohexanediamine-(dihydrogenpyrophosphato)platinum(II)] the “overall rate of (R,R)-pyrodach-2 degradation and impurity appearance” value was “dramatic decrease”.
